The values below come from ChEMBL document CHEMBL1201862, “PubChem BioAssay data set” (2004).

What is called EC50 is the concentration needed to bring the measured effect to its halfway point. The AC50 is the concentration at which the activity in the assay is half-maximal.

Calls of active or inactive are those of the source. Rule as the data show it, for most assays here: actives have a measured EC50 and inactives only a lower limit. Bounds are passed on as bounds.

Experiment [1] can be described thus: Luminescence Cell-Based Dose Response HTS to Identify Activators of Luciferase Translation or Activity in H4 […] Cells. [Related pubchem assays: 1829 (Project Summary), 1814 (Primary HTS)]. Type of experiment: functional.
Experiment [2] has as its system H4. The experiment can be described thus: Luminescence Cell-Based Dose Response HTS to Identify Activators of 5'UTR Stem-Loop Driven Prion Protein mRNA Translation in H4 Neuroglioblastoma Cells. [Related pubchem assays: 1829 (Project Summary), 1814 (Primary HTS)]. Type of experiment: functional. To be noted: Homo sapiens.
Experiment [3] in a line: Luminescence Cell-Based Dose Confirmation HTS to Identify Activators of 5'UTR Stem-Loop Driven Alpha-Synuclein mRNA Translation in H4 Neuroglioblastoma Cells. [Related pubchem assays: 1829 (Project Summary), 1814 (Primary HTS)]. The class given is functional.
The target in experiment [4] is T1, Heat shock factor protein 1 (Mus musculus, UniProt P38532).
T1 sequence (P38532 whole entry): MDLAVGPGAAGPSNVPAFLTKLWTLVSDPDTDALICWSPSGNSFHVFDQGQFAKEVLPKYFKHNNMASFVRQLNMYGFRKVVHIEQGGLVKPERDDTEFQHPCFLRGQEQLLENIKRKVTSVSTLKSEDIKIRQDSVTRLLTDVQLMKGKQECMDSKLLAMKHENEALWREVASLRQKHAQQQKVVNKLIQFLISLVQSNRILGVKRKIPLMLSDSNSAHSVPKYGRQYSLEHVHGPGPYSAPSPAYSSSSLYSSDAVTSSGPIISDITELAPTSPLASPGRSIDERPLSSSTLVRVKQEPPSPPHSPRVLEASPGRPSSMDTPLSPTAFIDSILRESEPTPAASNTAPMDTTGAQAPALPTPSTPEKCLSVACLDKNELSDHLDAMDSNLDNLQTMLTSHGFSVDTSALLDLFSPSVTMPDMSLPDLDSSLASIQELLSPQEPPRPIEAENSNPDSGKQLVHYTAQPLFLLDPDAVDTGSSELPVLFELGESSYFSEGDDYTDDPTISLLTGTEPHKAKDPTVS
The experiment can be described thus: inhibition of MG132-induced HSE-luciferase signal, confirmation, cell-based, NIH3T3, luminescence, dose retest (AID 2382).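 Also: NIH3T3 fibroblasts with HSF1-driven luciferase reporter stressed by proteasome inhibitor MG132; luminescence from HSF1-driven luciferase expression after 8 hours of MG132 stress.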 Type of experiment: functional.

Experiment [5] can be described thus: inhibitors of intracellular T. cruzi replication, confirmation, NIH3T3 host cells, beta-gal luminescence (AID 2044).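 Also: intracellular parasites grown in NIH/3T3 mouse fibroblasts as host cells; luminescent beta-galactosidase reporter signal from transgenic T. cruzi replicating inside host cells; inhibitors lower the luminescence signal.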 Type of experiment: functional, cell-based.
The nature of experiment [6]: cytotoxicity toward NIH3T3 fibroblasts, dose response, counter-screen, cell-based, ATP luminescence, mouse fibroblasts (AID 2010).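 Also: cells exposed to compound for about 90 hours before reading.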 The class given is functional. Background: Counterscreens check selectivity or assay interference.
Experiment [7] concerns the target T2, Cytochrome P450 1A2 (Homo sapiens, UniProt P05177).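 Also: PubChem cytochrome P450 panel assay, CYP1A2 panel member.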
T2 sequence (P05177 whole entry): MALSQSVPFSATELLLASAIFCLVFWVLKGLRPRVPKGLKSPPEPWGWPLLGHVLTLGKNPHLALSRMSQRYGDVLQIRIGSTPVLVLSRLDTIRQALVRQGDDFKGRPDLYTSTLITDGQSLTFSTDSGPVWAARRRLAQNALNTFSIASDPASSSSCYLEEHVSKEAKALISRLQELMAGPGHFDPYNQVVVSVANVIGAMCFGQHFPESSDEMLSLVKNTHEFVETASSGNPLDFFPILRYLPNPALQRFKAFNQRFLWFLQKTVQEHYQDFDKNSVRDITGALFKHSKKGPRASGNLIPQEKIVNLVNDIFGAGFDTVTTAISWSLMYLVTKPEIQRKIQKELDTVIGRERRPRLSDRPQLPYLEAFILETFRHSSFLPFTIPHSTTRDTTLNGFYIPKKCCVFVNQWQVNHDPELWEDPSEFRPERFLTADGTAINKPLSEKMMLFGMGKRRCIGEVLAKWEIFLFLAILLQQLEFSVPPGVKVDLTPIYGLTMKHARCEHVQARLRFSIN

On to `O=C(Nc1ccn(Cc2ccccc2)n1)c1ccc2c(c1)OCO2`, for which the figures for the half-maximal effective concentration (EC50) in experiment [1], in experiment [2] and in experiment [3] were 18.5 µM (active), > 120 µM (not active) and 15.6 µM (active), respectively. Consider `O=C(Nc1ccc([N+](=O)[O-])cc1)C1(c2ccccc2)CCOCC1`, for which, in experiment [4], the EC50 is > 195 µM (not active). The same measure, in the same setting: next, `O=C(CCCNC(=O)/C(=C\c1ccccc1F)NC(=O)c1ccccc1)OCc1ccccc1`: > 195 µM (not active); `O=C(CCC1CCCNC1)c1ccccc1` (centres undefined): > 195 µM (not active).

Turning to `O=C(/C=C/c1ccccc1)NCCC1=CCCCC1`, the figures for the EC50 in experiment [1], in experiment [2] and in experiment [3] were 2.93 µM (active), 13.1 µM (active) and 0.378 µM (active), respectively. For `O=C(COc1ccc(Cl)cc1Cl)NC(=O)N1CCCCC1`, the EC50 in experiment [1] is 30.6 µM (active); in experiment [2] it was 92.5 µM (active); in experiment [3], 6.03 µM (active). As for `CC(C)C(=O)Nc1cccc(-c2nc3ncccc3o2)c1`, the EC50 in experiment [4] is on record as > 195 µM (not active).

Take `CCOC(=O)CN1CC23C=CC(O2)C(C(=O)NC2CCCCC2)C3C1=O` (centres undefined): the EC50 in experiment [4] is > 195 µM (not active). Take `O=C(CSc1cccc2cccnc12)N1CCCC1`: the EC50 in experiment [5] was 0.299 µM (active); in experiment [6], 8.3 µM (active). Take `CCc1cc(/C=N/C2CCCCC2)c(O)s1`: the EC50 in experiment [1] was > 120 µM (not active); in experiment [2], > 120 µM (not active); in experiment [3] it was 67.7 µM (active); in experiment [4], > 195 µM (not active). `O=C(c1ccc(Cl)cc1)N1CCCC(c2ccccc2)=N1`: in experiment [7], the AC50 was 0.141 µM (inconclusive). `Cc1cc(N2CCN(C)CC2)nc2ccc(NC(=O)c3cccnc3Cl)cc12`: the EC50 in experiment [4] is listed as > 195 µM (not active). On the same count and under the same terms, as for `Cc1ccc(C(=O)NCc2ccc(N3CCN(C)CC3)cc2)cc1C`, the figure is > 195 µM (not active).

`COc1ccccc1Cn1nnc2c(=O)[nH]c(C3CCN(C(=O)c4ccc(C)cc4)CC3)nc21`: the AC50 in experiment [7] is 25.1 µM (inconclusive). Turning to `Cc1[nH]c2ccccc2c1C(=O)CSc1nc2cc(S(=O)(=O)N3CCCCC3)ccc2o1`, the half-maximal effective concentration (EC50) is 2.54 µM (active) in experiment [5] and 18.2 µM (active) in experiment [6].

As for `C/C(CC1CC(COCC(C)C)OC1=O)=N\Nc1nc(-c2ccccc2)cs1` (centres undefined), the half-maximal effective concentration (EC50) in experiment [1] was > 120 µM (not active); in experiment [2] it was 71.2 µM (active); in experiment [3] it was > 120 µM (not active). `COC(=O)c1ccc(OCc2cc(=O)n3ccsc3n2)cc1`: the EC50 in experiment [1] was > 120 µM (not active); in experiment [3], 21.2 µM (active). Take `CC(NC(=O)c1ccccc1)c1nc2ccccc2n1Cc1ccccc1F` (centres undefined): the AC50 in experiment [7] was 28.2 µM (inconclusive). On the same count and under the same terms, next, `COC(=O)[C@@]1(Cc2ccc(OC)cc2)[C@H]2c3cc(C(=O)N4CCCC4)n(CCc4c[nH]c5cc(F)ccc45)c3C[C@H]2CN1C(=O)c1ccccc1`: 39.8 µM (inconclusive). Regarding `O=S(=O)(NC(=NC(=S)Nc1ccccc1)c1ccccc1)c1ccc(Cl)cc1`, the EC50 in experiment [1] is 59.7 µM (active); in experiment [2], 63.2 µM (active); in experiment [3], 41.4 µM (active). Consider `CC(C)(C)CC(=O)NCCc1csc(-c2ccccc2)n1`, for which the EC50 is 1.1 µM (active) in experiment [5] and > 60 µM (not active) in experiment [6].

Consider `CC(C)Cc1nnc(NC(=O)c2cccc(S(=O)(=O)N3CCN(C)CC3)c2)s1`, for which the EC50 was 0.1 µM (active) in experiment [5] and > 60 µM (not active) in experiment [6].

For `CCN(CC)CCN1C(=O)Cn2c(C)c(C)c3cccc1c32`, the 50% effective concentration (EC50) in experiment [5] is 0.206 µM (active); in experiment [6], > 60 µM (not active). As for `CCCS(=O)(=O)c1nc(S(=O)(=O)c2ccc(C)cc2)c(N2CCN(CCO)CC2)s1`, the results for the EC50 in experiment [1], in experiment [2] and in experiment [3] were 8.79 µM (active), > 120 µM (not active) and 18.7 µM (active), respectively.

In the case of `CCOc1ccc(N/C(=C(/C(=O)C(=O)N2CCOCC2)C(=O)c2ccccc2)c2ccccc2)cc1`, the values for the EC50 in experiment [1], in experiment [2] and in experiment [3] were 20.3 µM (active), 57.8 µM (active) and 13.3 µM (active), respectively. As for `COc1ccccc1C(=O)NCC(=O)N/N=C/c1ccc2c(c1)OCO2`, the EC50 in experiment [4] is > 195 µM (not active). As to `CC(C)(C)C1CCc2[nH]c3ccccc3c(=O)c2C1` (centres undefined), the EC50 in experiment [5] was 1.1 µM (active); in experiment [6] it was > 60 µM (not active).

For `Cc1cc(C)c(-c2nc3ccccc3s2)[nH]1`, the results for the EC50 in experiment [1], in experiment [2] and in experiment [3] were 1.61 µM (active), 30.3 µM (active) and 0.207 µM (active), respectively.

Take `O=C(Nc1ccccc1)[C@@H]1[C@@H]2C(=O)N(c3ccc(F)cc3)C(=O)[C@@H]2[C@H]2C=CC=NN21`: the EC50 in experiment [1] is listed as > 60 µM (not active); in experiment [2], > 120 µM (not active); in experiment [3], > 120 µM (not active). Consider `O=C(/C=C/c1ccc2c(c1)OCO2)Nc1nncs1`, for which the values for the EC50 in experiment [1] and in experiment [2] were 0.1 µM (active) and 18.6 µM (active), respectively. Take `O=C(N/N=C\c1ccc2c(c1)OCO2)c1ccc(Cn2cc(Br)c([N+](=O)[O-])n2)o1`: the results for the EC50 in experiment [5] and in experiment [6] were 0.408 µM (active) and > 60 µM (not active), respectively. Turning to `CCOc1ccc(CN2CCN(Cc3cccn3-c3cccnc3)CC2CCO)cc1` (centres undefined), the EC50 in experiment [5] is 1.89 µM (active); in experiment [6] it was > 60 µM (not active). With `CC(=O)NCC1=C(NC(C)=O)C2CC1C(C)(C)C2C` (centres undefined), in experiment [4], the EC50 was > 195 µM (not active). On the same count and under the same terms, as for `COCCCNC(=O)Cn1cnc2sc(C)c(S(=O)(=O)N3CCN(c4ccccc4OC)CC3)c2c1=O`, the figure is > 195 µM (not active); as for `CCCCN(C)C(=O)CCC(=O)Nc1ccc2nc(N3CCN(C)CC3)cc(C)c2c1`, > 195 µM (not active). As for `COc1ccc(CCN(Cc2cccs2)S(=O)(=O)c2ccc(S(=O)(=O)N(C)C3CCCCC3)cc2)cc1OC`, the figures for the EC50 in experiment [5] and in experiment [6] were 0.878 µM (active) and > 60 µM (not active), respectively. Take `O=C(O)C(=O)Nc1ccc(NC(=O)C(c2ccccc2)c2ccccc2)cc1`: the EC50 in experiment [4] is > 195 µM (not active). As to `Cc1cc(C)[n+]2n1C([O-])=C(c1ccccc1)C2=O`, the EC50 was 29.1 µM (active) in experiment [1] and 13.1 µM (active) in experiment [2]. On to `Cc1ccccc1NC(=O)N1C2CCCC1CC(NC(=O)C1CC1)C2` (centres undefined), for which, in experiment [4], the EC50 was > 195 µM (not active). For the compound `Fc1ccc(COc2ccc(Br)cc2CNCc2ccncc2)cc1`, the concentration giving a half-maximal response (EC50) in experiment [5] is 0.78 µM (active); in experiment [6], > 30 µM (not active). For `NC(=O)C1(N2CCCCC2)CCN(C2CC(=O)NC2=O)CC1` (centres undefined), the EC50 in experiment [1], in experiment [2] and in experiment [3] was > 120 µM (not active) in each case. On to `COc1ccc(-c2ccc(-c3nnn(CC(=O)N4CCOCC4)n3)cc2)cc1`, for which the EC50 is 4.67 µM (active) in experiment [1], 2.65 µM (active) in experiment [2] and 4.15 µM (active) in experiment [3]. As for `CNC(=S)N/N=C/c1c(Cl)cccc1Cl`, the EC50 in experiment [4] was > 195 µM (not active). Consider `Fc1ccc(-c2csc(/C=C/c3ccc4c(c3)OCO4)n2)cc1`, for which the EC50 was 9.07 µM (active) in experiment [1], 46.8 µM (active) in experiment [2] and 9.2 µM (active) in experiment [3]. For the compound `c1ccc(CN2CCN(c3cnc4ccccc4n3)CC2)cc1`, the results for the EC50 in experiment [1], in experiment [2] and in experiment [3] were 26.8 µM (active), 10.9 µM (active) and 4.79 µM (active), respectively. On to `COc1ccc(N2CCN(C(=O)CSc3ncnc4scc(-c5ccc(C)cc5)c34)CC2)cc1`, for which the values for the EC50 in experiment [5] and in experiment [6] were 1.03 µM (active) and > 60 µM (not active), respectively.
